Reference: patent publication US11147272B2, “Pyridone compounds and agricultural and horticultural fungicides comprising the same as active ingredients” (MITSUI CHEMICALS AGRO, INC., priority 2017, dated 2021)

Tests used:
Magnaporthe grisea = assay: whole plant or invertebrate; format: in vivo; conditions: Blast on rice; class of control value
[1] = test system: Colletotrichum orbiculare; assay: Test Example H: Anthracnose on cucumber; conditions: Anthracnose on cucumber (Sagami Hanjiro); 250 ppm spray, 2.5 ml/pot; assessed 6 to 10 days after inoculation
Alternaia brassicicola = assay: Test Example C: Alternaria sooty spot on cabbage; format: in vivo; conditions: Alternaria sooty spot on cabbage; class of control value
Description: Seeds of a test plant (cabbage variety: Shikidori) were planted and cultivated until the cotyledons extended.
<Control Value> Control value=100{1−(n/3)}

Phytophthora infestans = assay: whole plant or invertebrate; format: in vivo; conditions: Late blight on tomato; class of control value
Puccinia recondita = assay: Test Example E: Brown rust on wheat; format: in vivo; conditions: Brown rust on wheat; class of control value
[2] = test system: Blumeria graminis f. sp. hordei; assay: Test Example D: Powdery mildew on barley; conditions: Powdery mildew on barley; class of control value
Plasmopara viticola = assay: Test Example G: Downy mildew on vine; conditions: Downy mildew on vine (Neomuscat); 250 ppm spray, 2.5 ml/pot; assessed 7 to 10 days after inoculation
Botrytis cinerea = assay: Test Example B: Gray mold on tomato; conditions: Gray mold on tomato; class of control value

Structure (SMILES) | Test A control value class (Magnaporthe grisea) | Test H control value class [1] | Test C control value class (Alternaia brassicicola) | Test F control value class (Phytophthora infestans) | Test E control value class (Puccinia recondita) | Test D control value class [2] | Test G control value class (Plasmopara viticola) | Test B control value class (Botrytis cinerea)
CCn1c(-c2ccc(OC)cc2F)c(CC(C)C)ccc1=O [compound 111] | H (more than 50% control value) | H (more than 50% control value) | H (more than 50% control value) | L (50% or less control value) | H (more than 50% control value) | H (more than 50% control value) | H (more than 50% control value) | H (more than 50% control value)
CCn1c(-c2c(F)cc(F)cc2F)c(CNOC)cc(Cl)c1=O [compound 112] | L (50% or less control value) | H (more than 50% control value) | H (more than 50% control value) | L (50% or less control value) | H (more than 50% control value) | H (more than 50% control value) | L (50% or less control value) | H (more than 50% control value)
CCn1c(-c2c(F)cc(OC)cc2F)c(C(C)(C)OC)cc(Cl)c1=O [compound 113] | H (more than 50% control value) | H (more than 50% control value) | H (more than 50% control value) | L (50% or less control value) | H (more than 50% control value) | L (50% or less control value) | L (50% or less control value) | H (more than 50% control value)
CCn1c(-c2c(F)cc(OC)cc2F)c(CNOC)cc(Cl)c1=O [compound 114] | L (50% or less control value) | H (more than 50% control value) | H (more than 50% control value) | L (50% or less control value) | H (more than 50% control value) | H (more than 50% control value) | L (50% or less control value) | H (more than 50% control value)
CCn1c(-c2ccc(OC)cc2F)c(CC(C)C)cc(Cl)c1=O [compound 115] | H (more than 50% control value) | H (more than 50% control value) | H (more than 50% control value) | L (50% or less control value) | H (more than 50% control value) | H (more than 50% control value) | L (50% or less control value) | H (more than 50% control value)
CCn1c(-c2ccc(OC)cc2F)c(CC(C)C)cc(Br)c1=O [compound 116] | H (more than 50% control value) | H (more than 50% control value) | H (more than 50% control value) | L (50% or less control value) | H (more than 50% control value) | H (more than 50% control value) | H (more than 50% control value) | H (more than 50% control value)
CCn1c(-c2ccc(F)cc2F)c(CC(C)C)ccc1=O [compound 117] | H (more than 50% control value) | H (more than 50% control value) | H (more than 50% control value) | L (50% or less control value) | H (more than 50% control value) | H (more than 50% control value) | L (50% or less control value) | H (more than 50% control value)
CCn1c(-c2ccc(O)cc2F)c(CC(C)C)cc(Cl)c1=O [compound 118] | L (50% or less control value) | L (50% or less control value) | H (more than 50% control value) | L (50% or less control value) | H (more than 50% control value) | L (50% or less control value) | L (50% or less control value) | H (more than 50% control value)
CCn1c(-c2ccc(F)cc2F)c(CC(C)C)cc(Cl)c1=O [compound 119] | H (more than 50% control value) | H (more than 50% control value) | H (more than 50% control value) | L (50% or less control value) | H (more than 50% control value) | H (more than 50% control value) | H (more than 50% control value) | H (more than 50% control value)
CCn1c(-c2ccc(F)cc2F)c(CC(C)C)cc(Br)c1=O [compound 120] | H (more than 50% control value) | H (more than 50% control value) | H (more than 50% control value) | L (50% or less control value) | H (more than 50% control value) | H (more than 50% control value) | L (50% or less control value) | H (more than 50% control value)
CCn1c(-c2ccc(OCCOC)cc2F)c(CC(C)C)cc(Cl)c1=O [compound 121] | H (more than 50% control value) | H (more than 50% control value) | H (more than 50% control value) | L (50% or less control value) | H (more than 50% control value) | H (more than 50% control value) | L (50% or less control value) | H (more than 50% control value)
CCn1c(-c2ccc(OCOC)cc2F)c(CC(C)C)cc(Cl)c1=O [compound 122] | H (more than 50% control value) | H (more than 50% control value) | H (more than 50% control value) | L (50% or less control value) | H (more than 50% control value) | H (more than 50% control value) | H (more than 50% control value) | H (more than 50% control value)
CCOc1ccc(-c2c(CC(C)C)cc(Cl)c(=O)n2CC)c(F)c1 [compound 123] | H (more than 50% control value) | H (more than 50% control value) | H (more than 50% control value) | L (50% or less control value) | H (more than 50% control value) | H (more than 50% control value) | H (more than 50% control value) | H (more than 50% control value)
C=CCOc1ccc(-c2c(CC(C)C)cc(Cl)c(=O)n2CC)c(F)c1 [compound 124] | H (more than 50% control value) | H (more than 50% control value) | H (more than 50% control value) | L (50% or less control value) | H (more than 50% control value) | H (more than 50% control value) | L (50% or less control value) | H (more than 50% control value)
